According to PMC6099615, “Anti-glycation, Carbonyl Trapping and Anti-inflammatory Activities of Chrysin Derivatives” (Molecules : A Journal of Synthetic Chemistry and Natural …, 2018):
Values after ≈ are worked out from the molar mass of the structure shown.

Assays:
[1] = in vivo, po; cited from earlier work
[2] = system: Amadori compound formation; test: Hemoglobin-δ-gluconolactone assay of Amadori compound formation; assay type: biochemical; details: for IC50: early stage of AGE formation; for inhibitory activity on Amadori compound formation, fold higher than positive control AG: relative to Aminoguanidine hydrochloride (IC50 = 109.74 μM)
AGE formation = test: Bovine serum albumin-methylglyoxal assay on AGE formation; assay type: biochemical; details: BSA-methylglyoxal, 37 °C, 48 h
Protocol: Bovine serum albumin (50 mg/mL) was incubated at 37 °C for 48 h with methylglyoxal (100 mM) in sodium phosphate buffer (0.1 M, pH 7.4) containing 0.2 g/L NaN3 in the presence of various concentrations of the compounds (including a control).
(§1) This test was used to evaluate the ability of samples to inhibit cross-linking of the GK peptide in the presence of D-ribose using the method described by Hwang et al. The GK peptide (26.7 mg/mL) was incubated with D-ribose (200 mg/mL) in sodium phosphate buffer (0.5 M, pH 7.4) containing 0.2 g/L NaN3 under sterile conditions at 37 °C for 72 h. […] All reagents and samples were sterilized by filtration through […] membrane filters. The fluorescence intensity was measured at an excitation wavelength of 355 nm and an emission wavelength of 460 nm with a Luminescence spectrometer LS50B (Perkin-Elmer Ltd., Buckinghamshire, England). AG was used as a positive control.

AGEs cross-linking = test: N-acetyl-glycyl-lysine-methyl ester D-ribose assay on AGE cross-linking; assay type: biochemical; details: GK peptide-D-ribose, 37 °C, 72 h
Protocol: as §1

[3] = Water solubility analysis; assay type: physicochemical; details: for solubility at 1 h: thermodynamic from solid, distilled water, 37 °C, sonication 1 h
Protocol: CS and derivatives were dissolved in distilled water and incubated at 37 °C with sonication for 1 h to maximize solubility. After sonication, undissolved samples were eliminated by centrifugation (7000× g, 37 °C, 5 min). The supernatants were diluted in methanol and filtered through a 0.45 μm disposable syringe filter (Advantec, Dublin, CA, USA) to analyze the concentration of the samples using HPLC analysis.

Compound | bioavailability [1] [%] | IC50 [2] [µM] | inhibitory activity on Amadori compound formation ([2]; up to a concentration of 10.0 mg/mL) | IC50 (AGE formation) [µM] | IC50 (AGEs cross-linking) [µM] | solubility at 1 h [3] [µM] | inhibitory activity on Amadori compound formation, fold higher than positive control AG [2] [fold] | water solubility, fold higher than CS ([3]; relative to CS) [fold]
CC(=O)O[C@H](CC(=O)[O-])C[N+](C)(C)C [acetyl-L-carnitine] | 43 |  |  |  |  |  |  | 
COc1cc(O)c2c(=O)cc(-c3ccccc3)oc2c1 [7-O-Methoxychrysin, 7-O-methoxychrysin] |  | > 31000 | no inhibitory activities | > 200 | > 2000 | 10 (≈ 2.68 µg/mL) |  | 
CC(=O)Oc1cc(O)c2c(=O)cc(-c3ccccc3)oc2c1 [7-O-Acetylchrysin, 7-O-acetylchrysin] |  | 23.5 |  | 21.6 | > 2000 | 86 (≈ 25.5 µg/mL) | 4.66 | 2.87
COc1cc(OC)c2c(=O)cc(-c3ccccc3)oc2c1 [5,7-Di-O-methoxychrysin, 5,7-di-O-methoxychrysin] |  | 7.88 |  | 41.8 | 39.9 | 11 (≈ 3.11 µg/mL) | 13.92 | 
CC(C)=CCOc1cc(O)c2c(=O)cc(-c3ccccc3)oc2c1 [7-O-Prenylchrysin, 7-O-prenylchrysin] |  |  |  |  |  | 9 (≈ 2.9 µg/mL) |  | 
